Patent US12509734B2, “Systems and methods to assess microbiomes and treatments thereof” (priority 2013, dated 2025)

Tested on: vaginal microbiota (PB-primer target groups)
Experiment: PB-qPCR of acute BV and post-tinidazole vaginal lavages (Tables 3A, 3B)
Assay type: in vivo, human
Settings: for Post-Tinidazole PB-qPCR Cells/sample: post-tinidazole vaginal lavage
Procedure: DNA extraction. Bacteria were lysed from vaginal lavages by adding sodium hydroxide and sodium dodecyl sulfate to final concentrations of 133 mM and 10% respectively, followed by vigorous reciprocal shaking at room temperature for 30 m. This lysate was then extracted with phenol:chloroform:isoamyl alcohol (25:24:1) then chloroform. The DNA was precipitated with an equal volume of 100% isopropanol, washed once with 70% isopropanol, and dissolved in 100 μl TE (10 mM Tris pH 8, 1 mM EDTA). DNA was stored at −20° C. until further use. […] DNA was amplified from extracts of reference bacterial species as single colonies, using QUICKEXTRACT™ Plant DNA 144 Extraction Solution (Epicentre, Madison, WI), modified by heating at 65° C. for 30 m, 95° C. for 1 m.
PCR primers, blockers, and amplification. Standard PCR was performed on ROBOCYCLER™ Gradient 96 (Stratagene). Real-time PCR was performed using Cepheid SMARTCYCLER™ or LIGHTCYCLER® 480 II (Roche Applied Sciences) thermal cyclers. The reaction utilized individually optimized amounts of each primer, 250 μM dNTPs (Invitrogen), 20 mM Tris pH 8.3, 3 mM MgCl2, 50 mM KCl, and Taq DNA polymerase, 5 units from either GeneChoice or New England Biolabs, 2.5 units GenScript Green Taq, or 1 unit of glycerol-free Taq DNA polymerase from APEX (Genesee Scientific) per 100 μl reaction volume, including either 0.073×SYBR® Green I Nucleic Acid Stain (FMC Bio Products) or 0.25 μl of 15 μM SYTO9 (Invitrogen) for qPCR reactions.
Calculation of titers and percent compositions. Cp values from reactions in LIGHTCYCLER® 480 II Real-Time PCR System (Roche Applied Science) were converted to molecules by comparison to Cp values of a standard curve from the same run derived from four to eight 10-fold serial dilutions of an amplicon quantified using the QUANT-IT® assay (Invitrogen). Molecules per μl were converted to cells per 5 ml lavage, assuming an average of five ribosomal genes per cell and proportioned to the ratio of the volume of the lavage used in the DNA prep and its final volume.
If the titer of the sample was below the limit of detection for the PB assay, nested PCR on a 24-cycle amplicon from a longer broad-spectrum 16S amplicon was performed (Tables 3A-3D). If the nested PCR was negative, the titer of the original sample was assumed to be 0; if the nested PCR was positive, the titer was reported as below the concentration of most dilute but still positive sample in each specific run. Amplicons were sequenced to verify that targeted species were amplified. Mixed amplicons were cloned into pGEM-T™ easy (Promega) and approximately 10 of the resultant clones sequenced. Percentages were calculated by dividing the titer from each PB by the sum of the titers from all the PB primers.
For Tables 3A-3D, titers were determined by qPCR using standard curves and converted to approximate cells/sample as described herein. Primers BU4&BU6 were used alone for the 16S-C&S but the extended set (Table 1) was used for qPCR. Species were identified by Sanger sequencing of either uncloned amplicons, in cases where a single species was dominant for the target group, or by sequencing small numbers of E. coli clones derived from the amplicons if mixed. In silico performance was determined using the RDP website; Target hits is the number of database entries of “good” quality >1200 bp within the target grouping; Total hits is the total number of these hits in the RDP database; Specificity=target/total hits; Total target number=number of RDP entries in the target group; Target coverage=target hits/target number. Notes: uc=uncultured; n.d.=none detected; n.a.=not applicable; t=no subuniversal primer; *=detected by nested PCR only, reporting limit of detection; [ ]=identity; ˜=novel species, closest hit listed. […] 1 min and ended with 72° C. 5 min; ***=excludes ˜⅓ of Clostridium XI; **** performance not determined, showing forward primer only. […]

SMILES: CCS(=O)(=O)CCn1c([N+](=O)[O-])cnc1C [tinidazole]
- Composition of post-tinidazole sample (PB-qPCR, FIG. 5B): dominated by L. iners
- Fold higher G. vaginalis in the BV sample compared to post-tinidazole (one patient, vaginal lavages): approximately 10^4 fold
- Fold lower titer of L. iners in the acute BV sample compared to post-tinidazole (one patient, vaginal lavages): approximately 20 fold
- Post-Tinidazole PB-qPCR Cells/sample (target Actinobacteridae): 5.7E+04 Cells/sample
- Post-Tinidazole PB-qPCR Cells/sample (target Bacteroidaceae/uc Prevotellaceae): 4.7E+06 Cells/sample
- Post-Tinidazole PB-qPCR Cells/sample (target Beta-Proteobacteria): 2.6E+04 Cells/sample
- Post-Tinidazole PB-qPCR Cells/sample (target Broad-spectrum (BU4L/BU6R)): 1.4E+10 Cells/sample
- Post-Tinidazole PB-qPCR Cells/sample (target Clostridiales Incertae Sedis XI): 0 Cells/sample
- Post-Tinidazole PB-qPCR Cells/sample (target Clostridiales Incertae Sedis XII): 5.5E+03 Cells/sample
- Post-Tinidazole PB-qPCR Cells/sample (target Coriobacteridae): 4.0E+04 Cells/sample
- Post-Tinidazole PB-qPCR Cells/sample (target Cross-family Clostridia): 3.9E+03 Cells/sample
- Post-Tinidazole PB-qPCR Cells/sample (target Enterobacteriales, Pasteurellales, Pseudomonadaceae): 2.9E+03 Cells/sample
- Post-Tinidazole PB-qPCR Cells/sample (target Fusobacterium): 2.9E+02 Cells/sample
- Post-Tinidazole PB-qPCR Cells/sample (target Lachnospiracea uc & incertae sedis, Clostridium IVa, Roseburia): 2.8E+05 Cells/sample
- Post-Tinidazole PB-qPCR Cells/sample (target Lactobacillaceae): 8.4E+09 Cells/sample
- Post-Tinidazole PB-qPCR Cells/sample (target Megasphaera/Dialister/Veillonella): 1.8E+03 Cells/sample
- Post-Tinidazole PB-qPCR Cells/sample (target Mobiluncus): 0 Cells/sample
- Post-Tinidazole PB-qPCR Cells/sample (target Mycoplasmatales): 8.3E+04 Cells/sample
- Post-Tinidazole PB-qPCR Cells/sample (target Peptostreptococcaceae): 0 Cells/sample
- Post-Tinidazole PB-qPCR Cells/sample (target Staphylococcus): 1.0E+05 Cells/sample
- Post-Tinidazole PB-qPCR Cells/sample (target Streptococcus): 8.1E+05 Cells/sample
- Post-Tinidazole PB-qPCR Cells/sample (target uc Clostridiales (BVAB2&3 subset)): 0 Cells/sample
